The test system of one data set is Saos-2 cells. Briefly: MTT cell viability / cytotoxicity assay, Saos-2 cells. In kind it is cell-based. The following applies: MTT assay and clonogenic assay. On the procedure: Cells were plated in flat-bottom 96-well plates at a density of 3 × 10^3 cells per well. After 12 h of cell attachment, the cell culture medium was replaced with 100 μL of pre-warmed media containing the compounds at different concentrations. After 24–72 h of incubation, cell proliferation was assessed by the MTT assay. A fresh mixture of 10 μL of thiazolyl blue tetrazolium bromide (MTT) and 90 μL of medium were freshly added to each well. After incubation for 4 h, the medium was gently removed. The formazan crystals that formed were dissolved in 110 μL of DMSO, and the absorbance was subsequently measured with a plate reader (Perkin Elmer) at 490 nm. EC50 values were calculated using Origin software. To measure the cytotoxicity of 2, HeLa cells, HUVECs, Saos-2 cells and CCC-HEH-2 cells were incubated with 100 μL of 1–500 μM 2 for 24 h, and then, cell viability was determined. To measure the cytotoxicity of TCO-Dox or Dox, HeLa cells, HUVECs, Saos-2 cells or CCC-HEH-2 cells were incubated with 200 μL of 0.001–10 μM TCO-Dox or Dox for 72 h, and the cell viability was determined. To determine the cytotoxicity of activated Dox, HeLa cells, HUVECs, Saos-2 cells or CCC-HEH-2 cells were pre-incubated with 100 μL of 500 μM 2 for 6 h, and then, 2 was removed and 200 μL of 0.0001–10 μM TCO-Dox was added for 72 h of incubation, and cell viability was determined. […]
Prodrug activation efficacy in cells: Cells were plated on flat bottom 96-well plates at a density of 3x10^3 cells per well. After 12 h attachment, cells were incubated with 100 µL 500 µM of 2 for 6 h before removing 2 and the addition of 200 µL 0.0001-10 µM of TCO-Dox. Cells were further incubated for 72 h before measuring the viability by the MTT […]
Clonogenic assay of cells in vitro: Clonogenic assay was performed according to the standard protocol.6 2×10^5 attached cells were treated with 500 µM of 2 for 6 h in culture dishes. Cells were then detached, re-suspended in cultural medium and counted accurately. The cell suspension was diluted into the desired seeding concentration and cells were seeded in 6-well plates at a density of 200 cells per well for CCC-HEH-2 and 400 cells per well for HeLa, Saos-2 and HUVECs. After incubation for 10 days, the cultural medium was removed and cells were rinsed carefully with PBS. 2 mL of a mixture of 6.0% (vol/vol) glutaraldehyde and 0.5% (wt/vol) crystal violet was added and kept for 30 min.
The glutaraldehyde crystal violet mixture was removed carefully. The colonies were rinsed with water and dried in normal air at room temperature. The number of the colonies was counted using a stereomicroscope.
When untreated cells are plated as a single-cell suspension at low densities, they will grow to colonies. The plating efficiency (PE) is the ratio of the number of colonies to the […]
(Supplementary Equation 1)
The number of colonies that arise after treatment of cells, expressed in terms of PE, is called the surviving fraction (SF): […]
On the technique in general: Tetrazolium assays rely on reduction of a dye to a coloured formazan, in cell work by metabolically active cells.

The nature of data set [1]: Stability in human serum (UPLC-MS/MS). It is filed as in vitro ADME. The settings on record: 10 μM in human serum. The protocol: (Sigma, St. Louis, MO). Then, 9 µL Na125I (2.4 mCi) (Beijing Atom High Tech, Beijing, China) was added and the mixture was kept at room temperature for 1 h until the labeling ratio reached to more than 95%. For SPECT/CT imaging, a mixture of 50 mg kg-1 2 and 0.875 mg kg-1 125I labelled 2 (700 µCi) were intravenously administrated to investigate the distribution of 2/3 and 0.875 mg kg-1 125I labelled 2 (700 µCi) was administrated as a control. After anesthetization with 2% isoflurane in oxygen, SPECT and helical CT scans of the mice were performed at 2, 5, 7 and 25 h on a NanoScan SPECT/CT imaging system (Mediso, Budapest, Hungary).
UPLC-MS/MS analyses: UPLC-MS/MS metabolomic analyses were performed using a Triple Quadrupole Liquid Chromatograph Mass Spectrometer (LCMS 8050, Shimadzu) in multiple reaction-monitoring mode (MRM). Data acquisition and processing were performed using LabSolutions version 5 software. Measurements were carried out at 40°C. […]
Plasmatic stability of compound 2 and TCO-Dox: To evaluate the stability of 2 and TCO-Dox under physiologically relevant conditions, compounds were incubated in human serum and the amount of the remaining intact compound (the corresponding dephosphorylated 3 was detected as well) was determined by UPLC-MS/MS. […] After centrifugation at 1559 g for 7 min and filtration, 2 µL of the supernatant was analyzed by UPLC-MS/MS (n=5).

Turning to `Cc1nnc(-c2ccc(CC(=O)NCCCCC(NC(=O)Cc3ccc4ccccc4c3)C(=O)NC(Cc3ccc(OP(=O)(O)O)cc3)C(=O)NC(Cc3ccccc3)C(=O)O)cc2)nn1` (centres unmarked) [compound 2, NapK(Tz)YpF], the “cytotoxicity of 2 against Saos-2 cells” value in the data set on Saos-2 cells was “toxic to Saos-2 cells to some extent”. The stability in serum/plasma entry in data set [1] is listed as “partially transformed to the dephosphorylated product 3 in plasma”.

Values taken from paper PMC6261997, “Synergistic enzymatic and bioorthogonal reactions for selective prodrug activation in living systems” (Nature Communications, 2018).
